Measured values taken from US9145375B2, “Quinazolinone compounds” (PRANA BIOTECHNOLOGY LIMITED, priority 2008, dated 2015).
pIC50: −log10 of the molar value. Like-named read-outs stand apart in the source and are kept apart here.

Experiments:
[1] = Plasma Protein Binding, human; assay type: in vitro ADME
[2] = Metabolism in hepatocytes (predicted EH), rat; assay type: in vitro ADME
[3] = target: CYP3A4 (Homo sapiens, UniProt P08684); assay: CYP450 inhibition, specific substrate approach in human liver microsomes: CYP3A4; assay type: in vitro ADME; design: using a specific substrate approach in human liver microsomes; from tissue; host or cells: human liver microsomes
Experimental: (§1) CYP450 Isoform Inhibition Using a Specific Substrate Approach
(§2) The present study is a “Tier 2” screen to assess potential enzyme inhibition at a test compound concentration of 20 μM using a specific substrate approach in human liver microsomes.
(§3) The substrate specific enzyme inhibition study relies on the formation of a metabolite that is mediated by a specific CYP450 isoform using human liver microsomes. In the current study, the following reactions were monitored to assess interactions with specific CYP450 isoforms. A known inhibitor of each isoform was included in each assay as a positive control. The following IC50 values have been reported in the literature using equivalent assay conditions for each CYP450 isoform:
(§4) The reaction was initiated by the addition of an NADPH-regenerating system and was quenched by the addition of acetonitrile prior to determining the concentration (and apparent rate of formation) of the specific metabolite by LC/MS.
(§5) The IC50 was deemed to be the concentration at which there was a 50% reduction in the amount of metabolite formed, relative to the maximal extent of formation.

[4] = tested on: 6-OHDA lesion of the SNpc; assay: Parkinson's disease in vivo: 6-OHDA model; design: species or system mouse; details: 6-OHDA lesioned mice
Experimental: Parkinson's Disease In Vivo Technique: 6-OHDA Model
Preparation of the toxin 6-OHDA (1.65 mg/mL, Sigma Cat# H-4381):
6-OHDA toxin is dissolved in ascorbic acid solution (0.2 mg/mL in dH2O), store in dark on ice. To increase the speed of anaesthesia and reduce stress to the mouse, there is premedication with atropine (0.5 mg/kg) and xylazine (10 mg/kg) is injected subcutaneously via a 27 gauge needle).
To Prepare the Lesion Needle to Inject 6-OHDA:
PBS is sucked up into the line (ensure no air bubbles) with up to […] in a Hamilton syringe. Syringe is placed the in the Kd Scientific syringe pump and secured. Pump is turned the on and syringe is loaded into the pump. Pump volume is set at […] and the rate is set at 0.5 ml/min. The lesion needle is positioned so that the bevelled (eye) of the needle is at a 45° angle from the midline and tightened to secure the needle. Pump is run and checked for fluid coming out.
3-4% isoflurane is carried by oxygen to induce anaesthesia and 1-2% for maintenance of anaesthesia. Animal is placed in small induction chamber and subjected to a few minutes of 4% isoflurane in oxygen at a flow rate of approx 1 l/min. Mouse is then placed in stereotaxic frame. The anaesthetic tube is disconnected from induction box and isoflurane reduced to 2% conc and oxygen flow rate to approx […]. Tube is connected to the nose piece attached to stereotaxic frame so that anaesthetic gas can be constantly administered during surgery. LHS ear bar is screwed at approx 3 mm. RHS ear bar is screwed in until there is no sideways head movement (about 5 mm). Front incisors are placed over the mouthguard and put nose-guard on (3 mm below 0). Mouthguard is screwed into place and ensured the top of the mouse's head is level (re-check this once the animal's skull is exposed).
Using a scalpel (size 4, blade 22), the scalp is cut down the centreline of the mouse's head to expose the skull. Typically 10-15 mm. The surface of the skull is dried with a cotton bud. Drill hole is measured with a ruler 3 mm posterior from Bregma and between 1 and 1.5 mm laterally from the centre line. The skull is drilled into this position until the surface of the brain is exposed.
6-OHDA is sucked up to fill approximately 15 cm of the line and the syringe. Fluid is ensured to be coming out of needle. The bevelled of the needle is aligned over the centreline where Bregma crosses, viewed by Motik dissecting microscope. The needle is ensured to be a few mm above the skull before positioning. Frame is moved 2.9 mm in a posterior direction and 1.1 mm (11 small notches) laterally to the right (for RHS injections) from the starting coordinates at Bregma. Needle is moved down until the tip of the needle just touches the surface of the brain.
Needle is lowered to the required depth of 4.6 mm and brain is allowed to settle for 2 min.
[…] of toxin is injected into the RHS SNpc, taking 4 min. 2 min is allowed to ensure the toxin disperses. Needle is withdrawn and antiseptic applied to the wound, with suture or superglue to close.
Mouse is wrapped in a piece of tissue and placed in a warm recovery box (on a heat pad) with water bottles (50 ml tubes) warmed to 50 C. Panadol® syrup is added to mouse's water bottle.
Rotation is recorded by the Computer based Rotacount system—(Columbus Instruments, Columbus, Ohio, USA). The system comprised of 8 bowls with sensors connected to a computer which measures incremental turns (90 degrees and full turns 360 degrees) either clockwise or counter clockwise. The sensors are positioned above the centre of each bowl about 30 cm above each. Tubing and a thin empty plastic pipette are attached so that the sensor is now extended to with a few cm of the base of the bowl.
Mice are placed individually into the eight bowls. Mice are secured to the pipettes via a cable tie and tape. […]

[5] = target: T1, CYP1A2 (Homo sapiens, UniProt P05177); assay: CYP450 inhibition, specific substrate approach in human liver microsomes: CYP1A2; assay type: in vitro ADME
T1 construct: using a specific substrate approach in human liver microsomes; from tissue; host or cells: human liver microsomes
T1 sequence (P05177 1-516): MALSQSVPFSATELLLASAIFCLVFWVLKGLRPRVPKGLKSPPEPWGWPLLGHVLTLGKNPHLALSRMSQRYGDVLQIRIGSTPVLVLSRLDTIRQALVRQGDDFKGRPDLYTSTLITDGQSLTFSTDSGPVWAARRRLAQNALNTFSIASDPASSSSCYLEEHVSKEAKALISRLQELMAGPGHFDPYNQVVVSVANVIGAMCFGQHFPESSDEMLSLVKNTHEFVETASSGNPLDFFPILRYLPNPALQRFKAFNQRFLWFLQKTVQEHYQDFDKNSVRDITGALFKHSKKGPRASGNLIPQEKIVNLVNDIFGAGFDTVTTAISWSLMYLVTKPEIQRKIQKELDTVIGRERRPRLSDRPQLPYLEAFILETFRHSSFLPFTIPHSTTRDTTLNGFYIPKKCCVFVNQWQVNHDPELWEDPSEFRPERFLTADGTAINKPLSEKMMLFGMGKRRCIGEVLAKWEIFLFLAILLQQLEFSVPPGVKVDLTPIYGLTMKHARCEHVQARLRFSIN
Experimental: as §1, §2, §3, §4, §5

[6] = midazolam, read-out: CYP3A4-Midazolam IC50
[7] = testosterone, read-out: CYP3A4-Testosterone IC50

CYP3A4, sequence (P08684 2-503): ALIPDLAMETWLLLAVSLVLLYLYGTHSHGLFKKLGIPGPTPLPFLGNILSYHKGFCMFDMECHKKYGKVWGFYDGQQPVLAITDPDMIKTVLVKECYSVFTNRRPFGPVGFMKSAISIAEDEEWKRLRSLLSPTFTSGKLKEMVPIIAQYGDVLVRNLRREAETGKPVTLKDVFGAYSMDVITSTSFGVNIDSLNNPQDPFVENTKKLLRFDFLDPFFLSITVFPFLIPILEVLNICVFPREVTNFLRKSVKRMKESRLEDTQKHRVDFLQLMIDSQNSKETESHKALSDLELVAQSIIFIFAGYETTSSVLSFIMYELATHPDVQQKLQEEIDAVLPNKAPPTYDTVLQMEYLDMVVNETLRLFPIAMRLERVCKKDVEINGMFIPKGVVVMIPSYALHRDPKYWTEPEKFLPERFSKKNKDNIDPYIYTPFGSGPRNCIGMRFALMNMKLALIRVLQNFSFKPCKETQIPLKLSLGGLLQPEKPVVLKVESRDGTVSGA

## CNCc1nc2c(O)c(Cl)cc(Cl)c2c(=O)n1C [Compound F4161]
[1]
  fraction unbound: 0.043
[2]
  Metabolism (Predicted EH), Hepatocytes: Rat: Rat = 0.29

## CN(C)Cc1nc2c(O)c(Cl)cc(Cl)c2c(=O)n1CC1CC1 [Compound F4267]
[1]
  fraction unbound: 0.005
[2]
  Metabolism (Predicted EH), Hepatocytes: Rat: Rat = 0.45
[3]; substrate not stated, read-out: CYP3A4 IC50
  pIC50: < 4.52
[4]; 5 mg kg
  Behaviour (Rotation) % SSV: 7.01%
  Behaviour (Rotation) total turns/h ± SD: (240.89 ± 171.99) turns/h
  SN cell counts % of SSV (SSV = 0%): 55.79%
  SN cell counts (cells ± SD): (2992.00 ± 883.84) cells
[4]; 15 mg kg
  Behaviour (Rotation) % SSV: −23.39%
  Behaviour (Rotation) total turns/h ± SD: (319.67 ± 171.05) turns/h
  SN cell counts % of SSV (SSV = 0%): 77.86%
  SN cell counts (cells ± SD): (3415.96 ± 498.05) cells
[4]; 30 mg kg
  Behaviour (Rotation) % SSV: 36.33%
  Behaviour (Rotation) total turns/h ± SD: (164.93 ± 110.90) turns/h
  SN cell counts % of SSV (SSV = 0%): 110.44%
  SN cell counts (cells ± SD): (4041.70 ± 799.55) cells
[5]
  pIC50: 4.82

## CCn1c(CN(C)C)nc2c(O)c(Cl)cc(Cl)c2c1=O.Cl [Compound F4268]
[1]
  fraction unbound: 0.029
[2]
  Metabolism (Predicted EH), Hepatocytes: Rat: Rat = 0.30
[3]; [6]
  pIC50: ~4.70
[3]; [7]
  pIC50: < 4.70
[4]; SSV = 0%, dose not given
  Behaviour (Rotation) % SSV: 56.04%
[4]; dose not given
  Behaviour (Rotation) total turns/h ± SD: (114.56 ± 71.86) turns/h
  SN cell counts % of SSV (SSV = 0%): 93.96%
  SN cell counts (cells ± SD): (3725.04 ± 842.65) cells
[5]
  pIC50: ~4.70

## CN(C)Cc1nc2c(O)c(Cl)cc(Cl)c2c(=O)n1C [Compound F4269, 5,7-Dichloro-2-(dimethylamino)methyl-8-hydroxy-3-methylquinazolin-4(3H)-one]
[1]
  fraction unbound: 0.054 to 0.059
[2]
  Metabolism (Predicted EH), Hepatocytes: Rat: Rat = 0.35
[3]; [6]
  pIC50: < 4.52
[3]; [7]
  pIC50: < 4.52
[4]; SSV = 0%, dose not given
  Behaviour (Rotation) % SSV: 48.85%
[4]; dose not given
  Behaviour (Rotation) total turns/h ± SD: (132.50 ± 81.93) turns/h
  SN cell counts % of SSV (SSV = 0%): 68.91%
  SN cell counts (cells ± SD): (3243.93 ± 724.98) cells
[5]
  pIC50: 4.62

## CCN(CC)Cc1nc2c(O)c(Cl)cc(Cl)c2c(=O)n1CC1CC1 [Compound F4385]
[1]
  fraction unbound: 0.008 to 0.013
[2]
  Metabolism (Predicted EH), Hepatocytes: Rat: Rat = 0.35
[3]; [6]
  pIC50: 4.67
[3]; [7]
  pIC50: < 4.52
[4]; SSV = 0%, dose not given
  Behaviour (Rotation) % SSV: 49.98%
[4]; dose not given
  Behaviour (Rotation) total turns/h ± SD: (129.57 ± 16.26) turns/h
  SN cell counts % of SSV (SSV = 0%): 56.81%
  SN cell counts (cells ± SD): (3011.56 ± 502.27) cells
[5]
  pIC50: 4.87

## C#CCN(C)Cc1nc2c(O)c(Cl)cc(Cl)c2c(=O)n1CC1CC1 [Compound F4387]
[4]; SSV = 0%, dose not given
  Behaviour (Rotation) % SSV: 24.51%
[4]; dose not given
  Behaviour (Rotation) total turns/h ± SD: (195.57 ± 114.48) turns/h
  SN cell counts % of SSV (SSV = 0%): 46.90%
  SN cell counts (cells ± SD): (2821.24 ± 940.22) cells

## CCNCc1nc2c(O)c(Cl)cc(Cl)c2c(=O)n1CC [Compound F4495]
[1]
  fraction unbound: 0.023 to 0.024
[2]
  Metabolism (Predicted EH), Hepatocytes: Rat: Rat = 0.35
[3]; [6]
  pIC50: < 4.52
[3]; [7]
  pIC50: < 4.52
[4]; SSV = 0%, dose not given
  Behaviour (Rotation) % SSV: 18.06%
[4]; dose not given
  Behaviour (Rotation) total turns/h ± SD: (212.29 ± 101.41) turns/h
  SN cell counts % of SSV (SSV = 0%): 57.22%
  SN cell counts (cells ± SD): (3019.56 ± 318.79) cells
[5]
  pIC50: 4.86

## Br.CCNCc1nc2c(O)c(Cl)cc(Cl)c2c(=O)n1C [Compound F4496]
[2]
  Metabolism (Predicted EH), Hepatocytes: Rat: Rat = 0.35
[3]; [6]
  pIC50: 5.36
[3]; [7]
  pIC50: 5.07
[4]; SSV = 0%, dose not given
  Behaviour (Rotation) % SSV: 36.62%
[4]; dose not given
  Behaviour (Rotation) total turns/h ± SD: (164.20 ± 100.40) turns/h
  SN cell counts % of SSV (SSV = 0%): 95.68%
  SN cell counts (cells ± SD): (3758.11 ± 510.98) cells
[5]
  pIC50: 4.66
